# According to paper PMC6277767, “Broad and Region-Specific Impacts of the Synthetic Cannabinoid CP 55,940 in Adolescent and Adult Female Mouse Brains” (Frontiers in Molecular Neuroscience, 2018):
# Tested on: CD1 female mouse brain lipidome
# Assay: Brain-region lipid levels (HPLC/MS/MS lipidomics) 2 h after single i.p. 3 mg/kg CP 55,940 vs vehicle
# Format: in vivo
# Set-up: N-arachidonoyl phenylalanine level, Mean / N-stearoyl tryptophan level, Mean / N-stearoyl proline level, Mean / N-stearoyl leucine level, Mean / N-stearoyl phenylalanine level, Mean / N-stearoyl serine level, Mean / N-stearoyl methionine level, Mean: unit: moles per gram
# Conditions: midbrain
# Procedure: The Bloomington Institutional Animal Care and Use Committee of Indiana University reviewed and approved the animal procedures. Female mice from the CD1 strain were utilized to match our study examining THC’s effects on the brain lipidome ([Leishman et al., 2018]). Mice were given a single i.p. injection of either 3 mg/kg CP or 1:1:18 cremophor:ethanol:saline vehicle (please refer to the section “3 mg/kg CP Is Relevant for Synthetic Cannabinoid Abuse and Has Stronger Effects on the Female Mouse Brain Lipidome During Adolescence” for a justification of dose and use of female mice). Three different age groups were given injections: PND 35 and PND 50 adolescents, and adult mice (PND 113). At least eight mice in each age group received CP and at least eight received vehicle. Matching the THC study time course ([Leishman et al., 2018]), mice were sacrificed via rapid decapitation 2 h after injection. Brains were immediately removed and flash-frozen in liquid nitrogen, and then stored at -80°C until dissections were performed. Brains were dissected on an ice-cold dissection plate into the following regions: STR, HIPP, CER, THAL, CTX, HYP, MID, and STEM. These abbreviations for these brain areas will be used exclusively when discussing the results generated by these specific dissections. Each dissected area was immediately placed in liquid nitrogen and then stored at -80°C until used for lipid extraction.
# Tissue extracts were performed as previously described ([Bradshaw et al., 2006]; [Stuart et al., 2013]; [Raboune et al., 2014]; [Leishman et al., 2016a],[b], [2017], [2018]). First, samples were shock frozen in liquid nitrogen, weighed, and transferred to a centrifuge tube. The mass of the largest sample was multiplied by 50 to determine how many milliliters of HPLC-grade methanol (Fisher, Fair Lawn, NJ, United States) to add. Then, samples were spiked with 500 pmol deuterium-labeled NAGly (d8NAGly; Cayman Chemical, Ann Arbor, MI, United States). Samples were placed on ice in darkness for 2 h then individually homogenized and centrifuged at 19,000 × g for 20 min at 20°C. Supernatants were diluted with HPLC water (purified in house) to make a solution of 75% water, 25% supernatant. Lipids were partially purified on C18 solid phase extraction columns (Agilent, Palo Alto, CA, United States). A series of four elutions with 1.5 mL of 60%, 75%, 85%, and 100% methanol were collected ([Stuart et al., 2013]; [Leishman et al., 2016a],[b], [2018]).
# As previously described ([Bradshaw et al., 2006]; [Tan et al., 2006]; [Smoum et al., 2010]; [Stuart et al., 2013]; [Tortoriello et al., 2013]; [Raboune et al., 2014]; [Leishman et al., 2016a],[b], [2017], [2018]), samples were analyzed using an Applied Biosystems API 3000 triple quadrupole mass spectrometer with electrospray ionization (Foster City, CA, United States). Using an Agilent XDB-C18 reversed phase analytical column and optimized mobile phase gradients, 20 μL from each elution were chromatographed. Two Shimadzu 10ADvp pumps (Columbia, MD, United States) provided the pressure for gradient elution. Mobile phase A: 20% methanol, 80% water (v/v) and 1 mM ammonium acetate (Sigma, St. Louis, MO, United States). Mobile phase B: 100% methanol, 1 mM ammonium acetate. Every method run began with 0% mobile phase B, reached 100% mobile phase B flowing at 0.2 mL/min, and gradually returned to 0% mobile phase B.
# This screening library will be referred to as the lipidome when discussing data from this study. HPLC/MS/MS data were analyzed using Analyst software (Applied Biosystems) ([Bradshaw et al., 2006]; [Tan et al., 2006]; [Stuart et al., 2013]; [Tortoriello et al., 2013]; [Raboune et al., 2014]; [Leishman et al., 2016a],[b], [2017], [2018]). Chromatograms (Supplementary Figure 3) were generated by determining the retention time of analytes from the analytical column with a [M-1] or [M+1] parent peak and a fragmentation peak corresponding to the programmed values. […]
# [1] = PND 50 female mice, 3mg/kg CP 55,940
# [2] = PND 35 WT adolescent female mice, 3 mg/kg
structure (smiles),measurement,setting,value
"CCCCCCC(C)(C)c1ccc([C@@H]2C[C@H](O)CC[C@H]2CCCO)c(O)c1 [CP 55,940]","N-linoleoyl serine level, Mean",[1],6.73E-11
same,"N-linoleoyl tryptophan level, Mean",[1],BDL
same,"N-linoleoyl tyrosine level, Mean",[1],BDL
same,"N-linoleoyl valine level, Mean",[1],BDL
same,"N-nervonoyl valine level, Mean",[1],BDL
same,"N-oleoyl GABA level, Mean",[1],5.62E-12
same,"N-oleoyl alanine level, Mean",[1],6.9E-13
same,"N-oleoyl dopamine level, Mean",[1],BDL
same,"N-oleoyl ethanolamine level, Mean",[1],1.01E-10
same,"N-oleoyl glycine level, Mean",[1],3.06E-12
same,"N-oleoyl leucine level, Mean",[1],5.64E-13
same,"N-oleoyl methionine level, Mean",[1],3.18E-13
same,"N-oleoyl phenylalanine level, Mean",[1],1.15E-12
same,"N-oleoyl proline level, Mean",[1],BDL
same,"N-oleoyl serine level, Mean",[1],1.24E-10
same,"N-oleoyl tryptophan level, Mean",[1],BDL
same,"N-oleoyl tyrosine level, Mean",[1],3.77E-13
same,"N-oleoyl valine level, Mean",[1],6.01E-14
same,"N-palmitoyl GABA level, Mean",[1],1.3E-11
same,"N-palmitoyl alanine level, Mean",[1],1.18E-12
same,"N-palmitoyl ethanolamine level, Mean",[1],7.69E-11
same,"N-palmitoyl glycine level, Mean",[1],1.39E-11
same,"N-palmitoyl leucine level, Mean",[1],1.38E-12
same,"N-palmitoyl methionine level, Mean",[1],1.13E-12
same,"N-palmitoyl phenylalanine level, Mean",[1],1.94E-12
same,"N-palmitoyl proline level, Mean",[1],BDL
same,"N-palmitoyl serine level, Mean",[1],1.74E-11
same,"N-palmitoyl tryptophan level, Mean",[1],BDL
same,"N-palmitoyl tyrosine level, Mean",[1],8.39E-13
same,"N-palmitoyl valine level, Mean",[1],3.48E-13
same,"N-stearoyl GABA level, Mean",[1],1.21E-11
same,"N-stearoyl alanine level, Mean",[1],3.21E-13
same,"N-stearoyl ethanolamine level, Mean",[1],3.26E-11
same,"N-stearoyl glycine level, Mean",[1],1.13E-12
same,"N-stearoyl leucine level, Mean",[1],7.66E-13
same,"N-stearoyl methionine level, Mean",[1],1.11E-12
same,"N-stearoyl phenylalanine level, Mean",[1],1.62E-12
same,"N-stearoyl proline level, Mean",[1],BDL
same,"N-stearoyl serine level, Mean",[1],3.85E-11
same,"N-stearoyl tryptophan level, Mean",[1],BDL
same,"N-stearoyl tyrosine level, Mean",[1],1.16E-13
same,"Oleic acid level, Mean",[1],3.11E-10
same,"PGE2 level, Mean",[1],1.09E-10
same,"PhosphoLEA level, Mean",[1],PISSR
same,"THC level, Mean",[1],BDL
same,"2-arachidonoyl glycerol level, Mean",[2],3.74E-10
same,"2-linoleoyl glycerol level, Mean",[2],1.59E-10
same,"2-oleoyl glycerol level, Mean",[2],1.88E-09
same,"2-palmitoyl glycerol level, Mean",[2],4.69E-10
same,"6-ketoPGF1α level, Mean",[2],2.09E-11
same,"Arachidonic acid level, Mean",[2],1.63E-09
same,"Linoleic acid level, Mean",[2],5.14E-10
same,"N- stearoyl valine level, Mean",[2],1.32E-12
same,"N-arachidonoyl GABA level, Mean",[2],1.53E-11
same,"N-arachidonoyl alanine level, Mean",[2],8.2E-12
same,"N-arachidonoyl ethanolamine level, Mean",[2],2.18E-11
same,"N-arachidonoyl glycine level, Mean",[2],4.42E-11
same,"N-arachidonoyl methionine level, Mean",[2],1.48E-12
same,"N-arachidonoyl phenylalanine level, Mean",[2],1.53E-12
same,"N-arachidonoyl serine level, Mean",[2],6.81E-12
same,"N-arachidonoyl taurine level, Mean",[2],3.84E-11
same,"N-arachidonoyl tyrosine level, Mean",[2],1.5E-12
same,"N-docosahexaenoyl GABA level, Mean",[2],2.08E-12
same,"N-docosahexaenoyl alanine level, Mean",[2],3.78E-12
same,"N-docosahexaenoyl ethanolamine level, Mean",[2],3.99E-11
same,"N-docosahexaenoyl glycine level, Mean",[2],1.87E-11
same,"N-docosahexaenoyl leucine level, Mean",[2],7.41E-13
same,"N-docosahexaenoyl methionine level, Mean",[2],4.7E-13
same,"N-docosahexaenoyl phenylalanine level, Mean",[2],1.08E-12
same,"N-docosahexaenoyl serine level, Mean",[2],2.39E-11
same,"N-docosahexaenoyl tyrosine level, Mean",[2],1.6E-12
same,"N-docosahexaenoyl valine level, Mean",[2],3.26E-13
same,"N-linoleoyl GABA level, Mean",[2],7.43E-13
same,"N-linoleoyl alanine level, Mean",[2],1.52E-12
same,"N-linoleoyl ethanolamine level, Mean",[2],3.78E-11
same,"N-linoleoyl glycine level, Mean",[2],4.58E-12
same,"N-linoleoyl leucine level, Mean",[2],3.56E-13
same,"N-linoleoyl phenylalanine level, Mean",[2],2.21E-13
same,"N-linoleoyl serine level, Mean",[2],5.04E-11
same,"N-oleoyl GABA level, Mean",[2],4E-12
same,"N-oleoyl alanine level, Mean",[2],7.02E-12
same,"N-oleoyl ethanolamine level, Mean",[2],1.94E-10
same,"N-oleoyl glycine level, Mean",[2],2.31E-11
same,"N-oleoyl leucine level, Mean",[2],1.53E-12
same,"N-oleoyl methionine level, Mean",[2],1.46E-12
same,"N-oleoyl phenylalanine level, Mean",[2],1.6E-12
same,"N-oleoyl serine level, Mean",[2],2.91E-10
same,"N-oleoyl tryptophan level, Mean",[2],1.39E-13
same,"N-oleoyl tyrosine level, Mean",[2],1.05E-12
same,"N-oleoyl valine level, Mean",[2],1.38E-12
same,"N-palmitoyl GABA level, Mean",[2],1.05E-11
same,"N-palmitoyl alanine level, Mean",[2],1.05E-11
same,"N-palmitoyl ethanolamine level, Mean",[2],9.08E-11
same,"N-palmitoyl glycine level, Mean",[2],4.59E-11
same,"N-palmitoyl leucine level, Mean",[2],3.23E-12
same,"N-palmitoyl methionine level, Mean",[2],2.56E-12
same,"N-palmitoyl phenylalanine level, Mean",[2],3.04E-12
same,"N-palmitoyl proline level, Mean",[2],9.03E-13
same,"N-palmitoyl serine level, Mean",[2],9.45E-11
same,"N-palmitoyl tryptophan level, Mean",[2],4.42E-13
same,"N-palmitoyl tyrosine level, Mean",[2],2.19E-12
same,"N-palmitoyl valine level, Mean",[2],2.86E-12
